{
  "source": "patent US20090028925A1",
  "about": "“Novel Phosphinic Acid-Containing Thyromimetics” (priority 2005, published 2009)",
  "key": {"[1]": {"biological_target": "T1, human thyroid hormone receptors TRα1 (Homo sapiens, UniProt P10827)", "T1 construct": "made in house; host or cells: Sf9 insect cells (baculovirus)", "T1 sequence (P10827 1-410 isoform P10827-2)": "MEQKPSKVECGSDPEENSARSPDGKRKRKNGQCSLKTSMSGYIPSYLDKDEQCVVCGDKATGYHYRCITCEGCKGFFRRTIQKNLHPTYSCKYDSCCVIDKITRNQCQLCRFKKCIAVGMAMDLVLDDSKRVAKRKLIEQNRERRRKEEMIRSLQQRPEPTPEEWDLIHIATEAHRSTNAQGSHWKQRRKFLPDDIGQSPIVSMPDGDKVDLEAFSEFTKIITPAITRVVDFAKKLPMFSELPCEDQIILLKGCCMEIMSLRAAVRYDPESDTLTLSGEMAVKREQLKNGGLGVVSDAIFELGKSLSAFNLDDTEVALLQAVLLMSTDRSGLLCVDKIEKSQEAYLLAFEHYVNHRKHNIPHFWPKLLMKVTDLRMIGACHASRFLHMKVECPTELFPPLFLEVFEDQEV", "T1 sequence (P19793 1-462 partner)": "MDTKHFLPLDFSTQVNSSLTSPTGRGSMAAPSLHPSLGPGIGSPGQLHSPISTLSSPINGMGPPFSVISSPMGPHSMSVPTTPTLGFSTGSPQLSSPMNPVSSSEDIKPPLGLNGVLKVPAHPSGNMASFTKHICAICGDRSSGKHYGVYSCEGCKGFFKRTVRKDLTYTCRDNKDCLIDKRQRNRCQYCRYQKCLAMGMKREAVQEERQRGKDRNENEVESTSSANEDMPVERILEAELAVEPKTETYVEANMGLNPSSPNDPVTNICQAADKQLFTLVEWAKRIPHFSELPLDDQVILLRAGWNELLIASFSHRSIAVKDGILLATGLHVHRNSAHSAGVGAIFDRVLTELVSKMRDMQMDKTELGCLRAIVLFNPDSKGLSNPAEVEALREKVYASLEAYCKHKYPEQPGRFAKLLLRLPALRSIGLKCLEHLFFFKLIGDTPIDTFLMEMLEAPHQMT", "experiment": "Receptor binding to TRα1 (gel filtration and scintillation proximity assay, labeled T3)", "settings": "SPA data; read-out: Ki TRα"}, "[2]": {"experiment": "Subacute study in normal rats, continuous infusion: heart weight", "assay_type": "in vivo, rats (Sprague-Dawley)", "settings": "continuous infusion 1 mg/kg/day", "source_text": "Efficacy endpoints include serum cholesterol, liver mitochondrial glycerol phosphate dehydrogenase (mGPDH) activity and the expression of relevant liver genes (e.g., the LDL-receptor, apoB, cpt-1, spot14 and apoAI). Safety parameters include heart weight, heart rate, heart mGPDH activity, the expression and key genes involved in cardiac structure and function (e.g., Serca2, HCN2, Kv1.5, MHCα, MHCβ, Alpha1c), and standard plasma chemistry analysis (liver enzymes, electrolytes, creatinine). Endocrine effects are monitored by analysis of serum thyroid stimulating hormone (TSH). [Taylor et al., Mol Pharmacol 52(3): 542-7 (1997); Weitzel et al., Eur J Biochem 268(14):4095-4103 (2001)]\nNormal rats (Sprague-Dawley) were maintained on a standard diet. […] The compounds were brought up to an appropriate volume using PBS and BSA to maintain solubility within the pump. The compounds were chemically stable in the excipient at 37° C. for 7 days.\nValues are expressed as percent of control. (Table 4)"}, "[3]": {"experiment": "Liver distribution following oral administration", "assay_type": "in vivo", "settings": "liver levels of Compound 7, normal rats, oral 10 mg/kg", "description": "Liver levels of Compound 7 were assessed in normal rats following oral administration of the HepDirect™ or other prodrugs. The levels were used to estimate potential efficacy. Liver levels were assessed by LC-MS using the 363.3/63.0 peak area to estimate levels of Compound 7 generated by orally administered prodrugs."}, "liver triglycerides": {"test_system": "liver triglycerides", "experiment": "Hepatic triglyceride content in normal rats, chronic infusion", "assay_type": "in vivo", "settings": "normal rats chronically infused for 7 days", "description": "Normal rats were chronically infused with Compound 7 for 7 days. Liver triglycerides were analyzed following lipid extraction by the Bligh Dyer method (Bligh E G and Dyer W J, A rapid method of total lipid extraction and purification. Can J Med. Sci. 1959 (August); 37(8):911-7, incorporated herein by reference). Total triglycerides were analyzed in the liver extracts by an enzymatic assay (Thermo Electron Corporation). Total lipid was normalized to initial liver weight and triglyceride content was normalized to liver weight. […] There was a 4% reduction in liver triglycerides for this group and the results were not statistically significant."}, "plasma cholesterol": {"test_system": "plasma cholesterol", "experiment": "Cholesterol lowering in hypercholesterolemic rats", "assay_type": "in vivo"}, "[4]": {"test_system": "thyroid stimulating hormone (TSH)", "experiment": "Circulating TSH in mice", "assay_type": "in vivo", "settings": "10 mg/kg/d for 77 days", "source_text": "Another concern with synthetic thyromimetics is the suppression of the endogenous thyroid axis. Thyroid homeostasis is maintained by the action of thyroid releasing hormone (TRH) and thyroid stimulating hormone (TSH). […] Although this particular side effect has been noted, it has typically been treated with less concern than the cardiac safety issues. […] Therefore previous investigators have measured TSH levels when testing synthetic thyromimetics and have used a 30% decrease of TSH as the denominator in their therapeutic index calculations. […] Therefore, both compounds suppress TSH as doses lower than that required to decrease circulating cholesterol. […] However, 0.2 mg/kg/d of Compound 18 in 28 day treated ZDF rats, decreased TSH levels greater than 90%."}, "[5]": {"experiment": "Continuous infusion study in rats on a cholesterol-containing diet", "assay_type": "in vivo", "settings": "continuous infusion 1 mg/kg/day", "method": "Screening for thyromimetic activity was performed in normal rats maintained on a cholesterol-containing diet. Compounds were administered by continuous infusion using an osmotic pump at 1 mg/kg/day."}},
  "data": [
    {"smiles": "Cc1cc(OCP(=O)(O)O)cc(C)c1Cc1ccc(O)c(C(C)C)c1", "note": "[Compound 7, [3,5-dimethyl-4-(4′-hydroxy-3′-iso-propylbenzyl)phenoxy]methylphosphonic acid]", "values": [
      {"measurement": "Ki", "setting": "[1]", "result": 58, "unit": "nM"},
      {"measurement": "Heart Weight", "setting": "[2]", "result": "108% of control"},
      {"measurement": "cardiac hypertrophy", "setting": "[2]", "result": "did not cause cardiac hypertrophy"},
      {"measurement": "Liver Levels (ug/g) (10 mg/kg@1.5 h)", "setting": "[3]", "result": "Not Detected"},
      {"measurement": "reduction in liver triglycerides", "setting": "liver triglycerides", "result": 64, "unit": "%"},
      {"measurement": "change in vivo at 0.2 mg/kg/day", "setting": "plasma cholesterol; Rattus norvegicus, ip, delivered i.p (0.2 mg/kg/d), percentage change from pre-dose cholesterol, read-out: % Cholesterol Lowering", "result": -41.5, "unit": "%"},
      {"measurement": "efficacy in lowering cholesterol", "setting": "plasma cholesterol; another experiment, hypercholesterolemic rats", "result": "efficacious"},
      {"measurement": "decrease in TSH", "setting": "[4]", "result": "no decrease in TSH was observed"},
      {"measurement": "cholesterol lowering effects", "setting": "[5]; day 7 and day 14", "result": "demonstrated cholesterol lowering effects"},
      {"measurement": "cardiovascular parameters (heart rate, LV dP/dt, systolic and diastolic blood pressure)", "setting": "[5]; day 7 or day 14", "result": "no changes in any of the cardiovascular parameters"}
    ]}
  ]
}
